Measured values reported in publication PMC10051393, “Spectroscopic and Theoretical Analysis of the Interaction between Plasma Proteins and Phthalimide Analogs with Potential Medical Application” (Life, 2023).

Legend:
[1] = biological target: T1, bovine serum albumin (BSA) (Bos taurus, UniProt P02769); assay: intrinsic Trp fluorescence quenching, excitation […] nm; type: binding; details: 297 K, pH 7.4, phosphate buffer, 1.0 μM protein, no site marker; double-log
T1 construct: gene ALB; native commercial protein (Sigma-Aldrich), untagged mature serum albumin
T1 sequence (P02769 25-607): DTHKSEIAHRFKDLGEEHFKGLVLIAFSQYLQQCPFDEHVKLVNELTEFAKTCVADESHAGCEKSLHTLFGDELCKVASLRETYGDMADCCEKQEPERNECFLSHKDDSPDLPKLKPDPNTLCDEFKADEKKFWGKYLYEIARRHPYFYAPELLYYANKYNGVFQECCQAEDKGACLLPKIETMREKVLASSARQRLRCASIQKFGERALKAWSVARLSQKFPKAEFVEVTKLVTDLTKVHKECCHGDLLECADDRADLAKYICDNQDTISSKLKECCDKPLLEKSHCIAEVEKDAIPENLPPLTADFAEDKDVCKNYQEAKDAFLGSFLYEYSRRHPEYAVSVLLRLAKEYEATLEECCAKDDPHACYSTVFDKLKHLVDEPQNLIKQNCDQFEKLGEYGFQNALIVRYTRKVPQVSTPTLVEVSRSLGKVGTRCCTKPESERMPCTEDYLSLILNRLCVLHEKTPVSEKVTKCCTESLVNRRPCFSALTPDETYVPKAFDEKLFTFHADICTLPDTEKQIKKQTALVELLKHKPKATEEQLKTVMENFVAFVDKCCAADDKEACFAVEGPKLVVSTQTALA

[2] = test system: T2, α1-acid glycoprotein (AAG); orosomucoid; assay: as above; type: binding; details: 297 K, pH 7.4, phosphate buffer, 1.0 μM protein; double-log
T2 construct: gene ORM1; native commercial plasma glycoprotein (Sigma-Aldrich); ORM1 is the main plasma form

SMILES	Binding Parameters / Kb × 10^4 [L.mol^-1] [1]	Binding Parameters / Kb × 10^3 [L.mol^-1] [2]
COc1ccccc1N1CCN(CN2C(=O)c3ccccc3C2=O)CC1 [B, compound B]	2.01 × 10^4 L·mol^−1	1.86 × 10^3 L·mol^−1
O=C1c2ccccc2C(=O)N1CN1CCN(c2cccc(C(F)(F)F)c2)CC1 [C, compound C]	43.61 × 10^4 L·mol^−1	1.48 × 10^3 L·mol^−1
O=C1c2ccccc2C(=O)N1CN1CCN(c2ccccc2)CC1 [A, compound A]	1.89 × 10^4 L·mol^−1	4.27 × 10^3 L·mol^−1
O=C1c2ccccc2C(=O)N1CN1CCN(C(c2ccccc2)c2ccccc2)CC1 [D, compound D]	11.72 × 10^4 L·mol^−1	2.09 × 10^3 L·mol^−1
